{"source": "patent US20250115942A1", "about": "“SCREENING METHOD FOR ANTI-PSEUDOMONAL AGENTS AND COMPOSITIONS AND METHODS FOR TREATING PSEUDOMONAS INFECTIONS” (Board of Regents for Oklahoma Agricultural and Mechanical …, priority 2021, published 2025)", "key": {"[1]": {"tested_on": "Pseudomonas aeruginosa PA14", "assay": "Growth curve analysis (OD600) in LB-Lennox", "type": "cell-based", "method": "Strains of interest were grown on LB plates overnight, then inoculated into LB liquid broth until late stationary phase was reached (about 18 hours). Strains were then diluted 1,000-fold into fresh medium and grown to early exponential phase (about 4 hours). The optical density at 600 nm (OD600) was measured, and all cultures were normalized to an OD600 equal to 0.1. […] The plate was incubated in a BioTek Synergy H1 plate reader (BioTek, USA) at 37° C. for 20 h with orbital shaking. OD600 measurements were obtained every 2 minutes. […]"}, "[2]": {"tested_on": "R/F pyocin gene transcription (P07990-lux reporter)", "assay": "Kinetic luciferase assay, P07990-lux reporter for R/F pyocin expression", "type": "cell-based, Pseudomonas aeruginosa", "method": "Strains of interest were cultured as described in the growth curve analysis section. Luminescence was measured in black or white clear-bottom 96-well microtiter plates at 3-min intervals at a sensitivity (gain) setting of 135 or 200 together with the OD600 for 20 hours on a BioTek Synergy H1 plate reader (BioTek, USA). Final luciferase activity values were calculated by normalizing luciferase luminescence to culture density.\nStrains of interest were grown on LB plates overnight, and single colonies were inoculated into LB liquid broth with appropriate antibiotics and grown overnight with shaking at 37° C. Strains were then diluted 1,000-fold into fresh LB medium and grown to early exponential phase (2-4 hours). […] The plate was incubated in a BioTek Synergy H1 plate reader (BioTek, USA) at 37° C. for 20 h with double-orbital shaking. OD600 and luminescence (gain=135, integration time, 1 sec) measurements were obtained every 10 minutes. At least 3 biological replicates were assayed for each combination of strain and condition. Results were analyzed in MS Excel and plotted using GraphPad Prism."}, "[3]": {"tested_on": "R/F pyocin expression (P07990-gfp reporter)", "type": "cell-based, Pseudomonas aeruginosa", "settings": "wild-type PA14; 50 μM peptide, 135 min", "procedure": "Strains of interest were grown in 3 mL of LB liquid broth overnight to obtain a saturated culture. They were then diluted 1,000-fold in fresh LB and grown to early exponential phase (about 4 hours). Cultures were concentrated by centrifuging 1 mL of exponential culture into a microcentrifuge tube at 5000 g for 1 min and resuspending in 100 μL. Cells were immobilized by spotting 0.5 μL of the concentrated mixture onto the pad and covering with cover glass. Imaging was performed on a Nikon Eclipse Ti inverted fluorescence microscope equipped with a Photometrics Prime 95B sCMOS digital camera, a Lumencor SOLA SE II 365 LED Light Engine, and an OKO temperature-controlled enclosure. Snapshot images of the slides were taken at 100× magnification in both phase and GFP channels. Automated timelapse imaging was performed at 37° C. For quantification of GFP-positive cells, images were analyzed using the MicrobeJ plugin for ImageJ, segmenting on phase-contrast and taking the mean GFP values of the corresponding fluorescence images. […]\nStrains of interest were grown in 3 mL of LB liquid broth with appropriate antibiotics overnight. […] Imaging was immediately performed using a Nikon Eclipse Ti inverted fluorescence microscope with a Photometrics Prime 95B sCMOS digital camera, a Lumencor SOLA SE II 365 LED Light Engine, and an OKO temperature-controlled enclosure. […]"}, "[4]": {"settings": "wild-type cells, 0.1-50 μM peptide with 0.03 μg/ml ciprofloxacin"}, "[5]": {"settings": "wild-type cells, peptide 25-100 μM"}, "[6]": {"settings": "wild-type cells, peptide concentrations in the 0.1-10 μM range (inhibitor: below 10 μM)"}, "[7]": {"settings": "wild-type cells, 50 μM peptide co-treatment with 0.03 μg/ml ciprofloxacin"}}, "data": [{"compound": "O=C(O)c1cn(C2CC2)c2cc(N3CCNCC3)c(F)cc2c1=O", "note": "[ciprofloxacin]", "values": [{"measurement": "culture growth", "setting": "[1]; WT PA14 cells, 0.03 μg/ml ciprofloxacin", "result": "slower growth en route to a slightly lower final OD"}, {"measurement": "culture growth", "setting": "[1]; xerCY272F, 0.03 μg/ml ciprofloxacin", "result": "initially outgrew both untreated control cultures"}, {"measurement": "OD600 reached in growth curve", "setting": "[1]; Δ69700 cells, 0.03 μg/ml ciprofloxacin", "result": 0.8}, {"measurement": "culture growth (ciprofloxacin sensitivity)", "setting": "[1]; ΔxerC strain, 0.03 μg/ml ciprofloxacin", "result": "sensitivity to ciprofloxacin similar to Δ69700"}]}, {"compound": "WKHYNY", "values": [{"measurement": "culture growth", "setting": "[1]; [4]", "result": "impacted neither culture growth nor pyocin expression"}, {"measurement": "culture growth", "setting": "[1]; [5]", "result": "no inhibition of growth"}, {"measurement": "culture growth", "setting": "[1]; [6]", "result": "correspondingly smaller effects, as did the control peptide"}, {"measurement": "culture growth", "setting": "[1]; ΔxerC cells, peptide 25-100 μM", "result": "inhibited by WRWYCR but not WKHYNY"}, {"measurement": "pyocin expression", "setting": "[2]; [4]", "result": "impacted neither culture growth nor pyocin expression"}, {"measurement": "pyocin expression", "setting": "[2]; [5]", "result": "Neither the WRWYCR inhibitor nor the WKHYNY control elicited pyocin expression beyond the level of untreated cells"}, {"measurement": "pyocin expression", "setting": "[2]; ΔxerC cells, peptide 25-100 μM", "result": "no differences in pyocin expression were observed"}]}, {"compound": "WRWYCR", "values": [{"measurement": "culture growth", "setting": "[1]; wild-type cells, 10 μM peptide", "result": "affected culture growth to a similar degree as 0.03 μg/ml ciprofloxacin"}, {"measurement": "culture growth", "setting": "[1]; [7]", "result": "initial inhibition of growth"}, {"measurement": "culture growth", "setting": "[1]; [5]", "result": "markedly impaired P. aeruginosa growth"}, {"measurement": "culture growth", "setting": "[1]; [6]", "result": "correspondingly smaller effects"}, {"measurement": "culture growth", "setting": "[1]; ΔxerC cells, peptide 25-100 μM", "result": "inhibited"}, {"measurement": "pyocin expression", "setting": "[2]; wild-type cells, 10 μM peptide co-treatment with 0.03 μg/ml ciprofloxacin", "result": "earlier and higher peak of pyocin expression relative to ciprofloxacin alone"}, {"measurement": "pyocin expression", "setting": "[2]; [7]", "result": "later peak of pyocin expression"}, {"measurement": "pyocin expression", "setting": "[2]; wild-type cells, 0.1-10 μM peptide", "result": "no increase in pyocin expression over untreated cells"}, {"measurement": "pyocin expression", "setting": "[2]; [5]", "result": "Neither the WRWYCR inhibitor nor the WKHYNY control elicited pyocin expression beyond the level of untreated cells"}, {"measurement": "pyocin expression", "setting": "[2]; ΔxerC cells, peptide 25-100 μM", "result": "no differences in pyocin expression were observed"}, {"measurement": "GFP fluorescence of pyocin-GFP reporter cells", "setting": "[3]", "result": "did not elicit GFP fluorescence"}]}, {"compound": "CO[C@@]12[C@H](COC(N)=O)C3=C(C(=O)C(C)=C(N)C3=O)N1C[C@@H]1N[C@@H]12", "note": "[MMC, mitomycin C]", "values": [{"measurement": "culture growth", "setting": "[1]; wild-type cells, 0.1 μg/ml MMC", "result": "inhibited cell growth to a slightly greater degree than 0.03 μg/ml ciprofloxacin"}, {"measurement": "culture growth", "setting": "[1]; xerCY272F, 0.1 μg/ml MMC", "result": "initially outgrew both untreated control cultures"}, {"measurement": "peak pyocin expression, OD-normalized", "setting": "[2]; wild-type cells, 0.1 μg/ml MMC", "result": "peaked at approximately tenfold that induced by ciprofloxacin"}, {"measurement": "pyocin expression", "setting": "[2]; xerCY272F ΔrecA, 0.1 μg/ml MMC", "result": "abolished ciprofloxacin- and MMC-mediated stimulation of pyocin expression"}, {"measurement": "pyocin expression", "setting": "[2]; xerCY272F, 0.1 μg/ml MMC", "result": "less expression in xerCY272F cultures than in the wild type"}, {"measurement": "pyocin expression", "setting": "[2]; ΔprtN (wild-type background), 0.1 μg/ml MMC", "result": "deletion of prtN abolished the ability of MMC to stimulate pyocin expression"}, {"measurement": "pyocin expression", "setting": "[2]; ΔrecA, 0.1 μg/ml MMC", "result": "deletion of recA fully abolished this very strong MMC-stimulated pyocin induction"}, {"measurement": "peak pyocin expression relative to untreated cells", "setting": "[2]; ΔxerC cells, 0.1 μg/ml MMC", "result": "approximately twofold stronger, peak of expression than in untreated cells"}, {"measurement": "pyocin expression", "setting": "[2]; ΔxerC ΔprtN, 0.1 μg/ml MMC", "result": "fully abrogated pyocin expression"}, {"measurement": "pyocin expression", "setting": "[2]; ΔxerC ΔrecA, 0.1 μg/ml MMC", "result": "independent of RecA"}]}]}
